{
  "source": "patent US11712443B2",
  "about": "“17α-monoesters and 17α,21-diesters of cortexolone for use in the treatment of tumors” (COSMO TECHNOLOGIES LTD., priority 2014, dated 2023)",
  "key": {"[1]": {"system": "stimulated PBMC", "experiment": "IC50 on stimulated PBMC (actively dividing cells)", "protocol": "The IC^50 in PBMC were tested in 2 different activation status:\nstimulated—actively dividing cells\nIC50 of the compounds was determined on fresh cells isolated from human blood (PBMC). The compounds toxicity was determined as follow: Therapeutic Index=Safety/Potency=IC50 stimulated PBMC_/IC50 cancer cell"}, "[2]": {"system": "MiaPaca-2 pancreatic tumor xenograft", "experiment": "Human pancreatic tumor xenograft in nude mice, subcutaneous treatment", "assay_type": "in vivo", "description": "The test was carried out comparing the anti-tumor activity of cortexolone 17α-benzoate at two different dosages (8.0 mg/kg, corresponding approximately at 230 μM, and 40 mg/kg, corresponding approximately at 1150 μM), versus the vehicle (i.e. 0.4% (v/v) tween 80 and 0.5% (w/v) carboxymethylcellulose in normal saline) and versus the comparator Cyproterone Acetate at two different dosages (7.4 mg/kg and 37 mg/kg).\n1×10^6 MiaPaca-2 cells suspended in matrigel were subcutaneously injected into 6 week old athymic nude mice.\nThe treatment with the tested compounds, with the vehicle and with the comparative compound, was initiated after the tumor volume has reached 50 mm3 after transplantation. All compounds were injected 100 μL/mouse subcutaneously of low dose solution (approximately 230 μM) or 100 μL/mouse of high dose solution (approximately 1150 μM) of cortexolone 17α-benzoate, vehicle and cyproterone acetate, respectively. Compounds and controls were administered subcutaneously daily for 28 days.\nTumors were measured every 4 days with a digital caliper.\nThe results are plotted in FIG. 1 as average change in tumor volume relative to the start of treatment. Tumor volume was calculated according to the formula 0.5236(r1)^2(r2) where r1<r2.\nThe test was carried out comparing the anti-tumor activity of cortexolone 17α-valerate-21-propionate (CB-03-10) at two different dosages (approximately 8.6 mg/kg and 43 mg/kg) versus the vehicle (i.e. 0.4% (v/v) tween 80 and 0.5% (w/v) carboxymethylcellulose in normal saline) and versus the comparator Cyproterone Acetate at two different dosages (7.4 mg/kg and 37 mg/kg).\nThe treatment with the tested compound, with the vehicle and with the comparative compound was initiated after the tumor has reached a volume of 50 mm3 after implantation, injecting subcutaneously 100 μL/mouse of low dose solution (approximately 230 μM) or 100 μL/mouse of high dose solution (approximately 1150 μM) of cortexolone 17α-valerate-21-propionate (CB-03-10), vehicle and cyproterone acetate, respectively. Compounds and controls were administered subcutaneously daily for 28 days.\nThe results are plotted in FIG. 2 as average change in tumor volume relative to the start of treatment. Tumor volume was calculated according to the formula 0.5236(r1)^2(r2) where r1<r2.\nCPA a well-known anti-androgen was used as control. Briefly 1×10^6 MiaPaca2 cells suspended in matrigel were subcutaneously (SC) injected into 6 week old male athymic nude mice. Tumors were measured every 4 days with a digital caliper. Tumor volume was calculated according to the formula: 0.5236(r1)2(r2) where r1<r2. Treatment with CB-03-10 and controls compounds was initiated after the tumor had reached 50 mm3. Compounds diluted in DMSO/2-hydroxypropyl b-cyclodextrin (vehicle) were injected subcutaneously (SC) daily (100 μL/mouse) at the concentration of 40 mg/Kg daily for 28 consecutive days."}, "[3]": {"system": "MiaPaca2", "settings": "human, 3 days"}, "[4]": {"experiment": "In vitro metabolism in human plasma", "assay_type": "in vitro ADME", "settings": "37 C; liquid chromatography; FIG. 13", "description": "To obtain some insights on the metabolism of CB-03-10 in human and rat plasma, a specific assay was designed. Briefly the compound was incubated at different time in human and rat plasma at 37 C. After incubation the samples were tested for presence of the intact compound by liquid chromatography."}, "[5]": {"system": "MiaPaca2 cells", "experiment": "Cell cycle arrest, propidium iodide staining", "assay_type": "cell-based", "settings": "24 hours; FIG. 10", "description": "Apoptosis can occur at the G1/S or G2/M transition of the cell cycle. Cells were treated with CB-03-10 for 24 hours then fixed with paraformaldehyde and stained with propidium iodide. […] The lack of G1 block indicates no effect on p53. The S & G2/M blocks may indicate activity on cell cycle check point molecules. For S phase, a possible target is the cyclin dependent kinase 2 (CDK2). Gemzar and cisplatin are example drugs that act in S phase. For G2, a possible target is CDK1."}, "[6]": {"system": "PC3", "experiment": "ATP-dependent proliferation/viability assay (Cell Titer Glo), 3 days", "settings": "3 days", "description": "(§1) The experiment was performed to test and to define the antitumor activity in vitro of cortexolone 17α-benzoate on LNCaP (AR+) and PC3 (AR^−), representative of Prostatic cancer cell lines with Androgen Receptor (AR) positive or negative expression, respectively. The experimental method consisted of: • 1. […] After 24 hours, 10 nM DHT (dihydrotestosterone) with or without anti-androgen compounds, or DMSO vehicle (negative control) was added to the cultures. • 3.\nas §1, with “define” for “define the”, “17α-valerate-21-propionate (CB-03-10)” for “17α-benzoate”, “AR” for “Androgen Receptor (AR)”"}, "[7]": {"system": "MCF7", "experiment": "In vitro proliferation / cytotoxic assay on breast cancer cells (cell titer glo)", "settings": "human, 3 days", "description": "For the cytotoxic assay: cells seeded in 96 well flat bottom culture plates in media containing charcoal stripped serum. After 24 hours test compounds were added to the cells. DMSO was used as the vehicle negative control and RU486 as the positive control. After 72 hours incubation cell were harvested, lysed and viability determined using the cell titer glow assay for viability."}, "[8]": {"experiment": "In vivo pharmacokinetic in mouse plasma", "settings": "mice; iv 20 mg/kg, SC 40 mg/kg, PO 40 mg/kg; after 1 hour", "description": "The pharmacokinetic of CB-03-10 was evaluated in plasma of mice after intravenous (IV), subcutaneous (SC) and oral administration (PO).\nMice (3 per group) were administered with the following doses, blood was collected at the indicated times. Plasma samples were analyzed by HPLC-MS/MS."}, "[9]": {"system": "Panc1", "settings": "human, 3 days"}},
  "data": [
    {"smiles": "CCCCC(=O)O[C@]1(C(=O)COC(=O)CC)CC[C@H]2[C@@H]3CCC4=CC(=O)CC[C@]4(C)[C@H]3CC[C@@]21C", "note": "[CB-03-10, cortexolone 17α-valerate-21-propionate]", "values": [
      {"measurement": "Therapeutic Index = IC50 resting PBMC/IC50 cancer cell", "setting": "[1]; PBMC Stim, healthy lymphocyte, Table IV", "result": 1},
      {"measurement": "Therapeutic Index = IC50 stimulated PBMC/IC50 cancer cell, AVERAGE", "setting": "[1]; average across the 7 cancer cell lines, Table VII", "result": 4},
      {"measurement": "pancreatic tumor size increase relative to initial tumor size", "setting": "[2]; Example 6, high dose approximately 43 mg/kg (1150 μM, 100 μL/mouse) SC daily 28 days, for the time of treatment", "result": "less than 5 fold"},
      {"measurement": "pancreatic tumor size increase relative to the initial size", "setting": "[2]; Example 22, 40 mg/Kg SC daily 28 days, during the treatment period", "result": "less than 5 fold"},
      {"measurement": "Median survival", "setting": "[2]; Example 22, 40 mg/Kg SC daily 28 days, vehicle 60 days", "result": 70, "unit": "days"},
      {"measurement": "tumor size increase", "setting": "[2]; Example 22, 14 days after treatment was stopped, vehicle 14-fold", "result": 6, "unit": "fold"},
      {"measurement": "in vivo antitumor activity compared with Cyproterone Acetate", "setting": "[2]; Examples 5 and 6, FIG. 3, same animal model", "result": "antitumor activity higher than Cyproterone Acetate"},
      {"measurement": "TI on Resting PBMC", "setting": "[3]", "result": 3},
      {"measurement": "TI on Stimulated PBMC", "setting": "[3]", "result": 3},
      {"measurement": "Therapeutic Index = IC50 resting PBMC/IC50 cancer cell", "setting": "[3]", "result": 3},
      {"measurement": "Therapeutic Index = IC50 stimulated PBMC/IC50 cancer cell", "setting": "[3]", "result": 3},
      {"measurement": "degradation in human plasma", "setting": "[4]", "result": "rapidly degraded to CB-03-05 in human plasma"},
      {"measurement": "cell cycle arrest", "setting": "[5]", "result": "induces an S phase block at lower concentrations then a G2/M block at higher concentration"},
      {"measurement": "IC50", "setting": "[6]; Homo sapiens, 72 h, PC3 (AR-), 10 nM DHT, Examples 1-2 Experiment 2, nonlinear regression least squares fit, additional experiments", "result": 50, "unit": "µM"},
      {"measurement": "Therapeutic Index = IC50 resting PBMC/IC50 cancer cell", "setting": "[6]; human", "result": 2},
      {"measurement": "Therapeutic Index = IC50 stimulated PBMC/IC50 cancer cell", "setting": "[6]; human", "result": 2},
      {"measurement": "Therapeutic Index = IC50 resting PBMC/IC50 cancer cell", "setting": "[7]", "result": 3},
      {"measurement": "Therapeutic Index = IC50 stimulated PBMC/IC50 cancer cell", "setting": "[7]", "result": 3},
      {"measurement": "plasma level of intact compound", "setting": "[8]", "result": "undetectable"},
      {"measurement": "TI on Resting PBMC", "setting": "[9]", "result": 2},
      {"measurement": "TI on Stimulated PBMC", "setting": "[9]", "result": 2},
      {"measurement": "Therapeutic Index = IC50 resting PBMC/IC50 cancer cell", "setting": "[9]", "result": 2},
      {"measurement": "Therapeutic Index = IC50 stimulated PBMC/IC50 cancer cell", "setting": "[9]", "result": 2}
    ]}
  ]
}
